Source: patent US12522597B2, “Methods and compositions for modulating splicing” (Skyhawk Therapeutics, Inc., priority 2019, dated 2026)
pEC50: −log10 of the molar value.

What was measured:
mHTT protein = mHTT protein assay (2B7-MW1, Mesoscale Discovery); format: cell-based, human; settings: GM04724 (CAG 70/20) Huntington's disease patient lymphoblast cells, 48 hours, 2B7-MW1 MSD; read-out: HTT Potency - Protein EC50 mHTT (average)
Description: Compounds are tested on GM04724 (CAG 70/20) Huntington's disease patient lymphoblast cells at doses ranging from 10 μM to 0.6 nM. 4,500 cells/well are seeded in 384 well plates. One plate replica is carried out for parallel viability testing by CellTiter Glo (CTG). Compounds are incubated for 48 hours, mHTT protein levels are assessed by the 2B7-MW1 assay via Mesoscale Discovery (MSD) as previously reported (Macdonald et al., 2014). The antibody pair is comprised of previously characterized monoclonals (2B7 and MW1) interrogating two regions for HTT conformation and biological properties: the N17 domain and the polyQ domain (Baldo et al., 2012; Ko et., 2001). 2B7-MW1 is dependent on subject/animal specific levels of HTT at the time of treatment. 2B7-MW1 is dependent on polyQ expansion (e.g., the higher the expansion the higher the signal) and on mHTT size (e.g., a similar polyQ will give higher signal with smaller HTT size). The viability readout is carried out by CTG according to the manufacturer's instructions.

[1] = system: MDR1-MDCK cell monolayers; test: MDCK-MDR1 permeability assay (BBB penetration potential); format: in vitro ADME; settings: dog, MDCK-MDR1, 120 min, 5 μM, pH 7.4
Description: (§1) Each determination is performed in duplicate. […] Analytical conditions are outlined below.

MDR1 = test: as above; format: in vitro ADME; settings: dog; for efflux ratio at 120 min, 5 μM: MDCK-MDR1, pH 7.4, MDCK-MDR1: Efflux; for Papp A→B at 120 min, 5 μM: MDCK-MDR1, pH 7.4, MDCK-MDR1: Papp A-B; for Papp B→A at 120 min, 5 μM: MDCK-MDR1, pH 7.4, MDCK-MDR1: Papp B-A
Description: as §1

Oc1cc2nccnc2cc1-c1ccc(O[C@H]2C[C@@H]3CCC[C@@H](N3)[C@H]2F)nn1 (single isomer, unassigned) [104-ENT2]
pEC50 (mHTT protein): 5.00 to 6.30
MDCK-MDR1: % Recov A-B [1]: 93%
MDCK-MDR1: % Recov B-A [1]: 99%
efflux ratio at 120 min, 5 μM (MDR1): 5
Papp A→B at 120 min, 5 μM (MDR1): 101 nm/s
Papp B→A at 120 min, 5 μM (MDR1): 536 nm/s

C[C@@]12CC[C@@](C)(N1)[C@@H](F)[C@@H](Oc1ccc(-c3ccc(-n4cccn4)cc3O)nn1)C2 (single isomer, unassigned) [153-ENT2]
pEC50 (mHTT protein): 7.30 to 7.80
MDCK-MDR1: % Recov A-B [1]: 60%
MDCK-MDR1: % Recov B-A [1]: 71%
efflux ratio at 120 min, 5 μM (MDR1): 3
Papp A→B at 120 min, 5 μM (MDR1): 71.6 nm/s
Papp B→A at 120 min, 5 μM (MDR1): 247 nm/s

Oc1cc(-c2cn[nH]c2)ccc1-c1ccc(O[C@H]2C[C@@H]3COC[C@@H](N3)[C@H]2F)nn1 (single isomer, unassigned) [123-ENT2]
pEC50 (mHTT protein): 6.30 to 7.00
MDCK-MDR1: % Recov A-B [1]: 87%
MDCK-MDR1: % Recov B-A [1]: 93%
efflux ratio at 120 min, 5 μM (MDR1): 10
Papp A→B at 120 min, 5 μM (MDR1): 70.3 nm/s
Papp B→A at 120 min, 5 μM (MDR1): 698 nm/s

Cn1ccc(-c2ccc(-c3ccc(O[C@H]4C[C@@H]5CCC[C@@H](N5)[C@H]4F)nn3)c(O)c2)nc1=O (single isomer, unassigned) [107-ENT2]
pEC50 (mHTT protein): 6.30 to 7.00
MDCK-MDR1: % Recov A-B [1]: 97%
MDCK-MDR1: % Recov B-A [1]: 103%
efflux ratio at 120 min, 5 μM (MDR1): 100
Papp A→B at 120 min, 5 μM (MDR1): 1.1 nm/s
Papp B→A at 120 min, 5 μM (MDR1): 112 nm/s

Oc1cc(-c2nncs2)ccc1-c1ccc(O[C@H]2C[C@@H]3CC[C@@H](N3)[C@H]2F)nn1 (single isomer, unassigned) [141-ENT1]
pEC50 (mHTT protein): 6.30 to 7.00
MDCK-MDR1: % Recov A-B [1]: 111%
MDCK-MDR1: % Recov B-A [1]: 120%
efflux ratio at 120 min, 5 μM (MDR1): 6
Papp A→B at 120 min, 5 μM (MDR1): 99.7 nm/s
Papp B→A at 120 min, 5 μM (MDR1): 597 nm/s

Cc1cncc(-c2ccc(-c3ccc(O[C@H]4C[C@@H]5CCC[C@@H](N5)[C@H]4F)nn3)c(O)c2)c1 (single isomer, unassigned) [89-ENT2]
pEC50 (mHTT protein): 5.00 to 6.30
MDCK-MDR1: % Recov A-B [1]: 55%
MDCK-MDR1: % Recov B-A [1]: 70%
efflux ratio at 120 min, 5 μM (MDR1): 13
Papp A→B at 120 min, 5 μM (MDR1): 26.1 nm/s
Papp B→A at 120 min, 5 μM (MDR1): 340 nm/s

N#Cc1ccc(-c2ccc(O[C@@H]3C[C@H]4CC[C@H](N4)[C@@H]3F)nn2)c(O)c1 (single isomer, unassigned) [111-ENT1]
pEC50 (mHTT protein): 5.00 to 6.30
MDCK-MDR1: % Recov A-B [1]: 90%
MDCK-MDR1: % Recov B-A [1]: 92%
efflux ratio at 120 min, 5 μM (MDR1): 3
Papp A→B at 120 min, 5 μM (MDR1): 156 nm/s
Papp B→A at 120 min, 5 μM (MDR1): 447 nm/s

Cc1ncc(-c2ccc(-c3ccc(O[C@H]4C[C@@H]5CCC[C@@H](N5)[C@H]4F)nn3)c(O)c2)o1 (single isomer, unassigned) [93-ENT2]
pEC50 (mHTT protein): 7.30 to 7.80
MDCK-MDR1: % Recov A-B [1]: 67%
MDCK-MDR1: % Recov B-A [1]: 88%
efflux ratio at 120 min, 5 μM (MDR1): 4
Papp A→B at 120 min, 5 μM (MDR1): 94.3 nm/s
Papp B→A at 120 min, 5 μM (MDR1): 415 nm/s

Cc1cc(-c2ccc(-c3ccc(O[C@@H]4C[C@H]5CCC[C@H](N5)[C@@H]4F)nn3)c(O)c2)cnn1 (single isomer, unassigned) [90-ENT1]
pEC50 (mHTT protein): 6.30 to 7.00
MDCK-MDR1: % Recov A-B [1]: 103%
MDCK-MDR1: % Recov B-A [1]: 99%
efflux ratio at 120 min, 5 μM (MDR1): 33
Papp A→B at 120 min, 5 μM (MDR1): 18.2 nm/s
Papp B→A at 120 min, 5 μM (MDR1): 605 nm/s

Cn1cc(-c2cc(O)c(-c3ccc(O[C@H]4C[C@@H]5CCC[C@@H](N5)[C@H]4F)nn3)c(F)c2)cn1 (single isomer, unassigned) [118-ENT2]
pEC50 (mHTT protein): 6.30 to 7.00
MDCK-MDR1: % Recov A-B [1]: 52%
MDCK-MDR1: % Recov B-A [1]: 80%
efflux ratio at 120 min, 5 μM (MDR1): 8
Papp A→B at 120 min, 5 μM (MDR1): 45 nm/s
Papp B→A at 120 min, 5 μM (MDR1): 368 nm/s

Oc1cc2cnccc2cc1-c1ccc(O[C@@H]2C[C@H]3CCC[C@H](N3)[C@@H]2F)nn1 (single isomer, unassigned) [80-ENT1]
pEC50 (mHTT protein): 6.30 to 7.00
MDCK-MDR1: % Recov A-B [1]: 70%
MDCK-MDR1: % Recov B-A [1]: 78%
efflux ratio at 120 min, 5 μM (MDR1): 4
Papp A→B at 120 min, 5 μM (MDR1): 74.7 nm/s
Papp B→A at 120 min, 5 μM (MDR1): 314 nm/s

O=c1cc(-c2cc(O)c(-c3ccc(O[C@H]4C[C@@H]5CCC[C@@H](N5)[C@H]4F)nn3)cc2F)cc[nH]1 (single isomer, unassigned) [57-ENT2]
pEC50 (mHTT protein): 6.30 to 7.00
MDCK-MDR1: % Recov A-B [1]: 77%
MDCK-MDR1: % Recov B-A [1]: 87%
efflux ratio at 120 min, 5 μM (MDR1): 90
Papp A→B at 120 min, 5 μM (MDR1): 3.5 nm/s
Papp B→A at 120 min, 5 μM (MDR1): 313 nm/s

Oc1cc(-c2ccn3cnnc3c2)ccc1-c1ccc(O[C@@H]2C[C@H]3CCC[C@H](N3)[C@@H]2F)nn1 (single isomer, unassigned) [86-ENT1]
pEC50 (mHTT protein): 6.30 to 7.00
MDCK-MDR1: % Recov A-B [1]: 89%
MDCK-MDR1: % Recov B-A [1]: 93%
efflux ratio at 120 min, 5 μM (MDR1): 46
Papp A→B at 120 min, 5 μM (MDR1): 5.4 nm/s
Papp B→A at 120 min, 5 μM (MDR1): 247 nm/s

CN(C)C(=O)c1cc2cc(O)c(-c3ccc(O[C@H]4C[C@]5(C)CCC[C@@](C)(N5)[C@H]4F)nn3)cc2o1 (single isomer, unassigned) [155-ENT2]
pEC50 (mHTT protein): 5.00 to 6.30
MDCK-MDR1: % Recov A-B [1]: 102%
MDCK-MDR1: % Recov B-A [1]: 102%
efflux ratio at 120 min, 5 μM (MDR1): 17
Papp A→B at 120 min, 5 μM (MDR1): 38.4 nm/s
Papp B→A at 120 min, 5 μM (MDR1): 637 nm/s

Oc1cc(-c2cn[nH]c2)ccc1-c1ccc(O[C@@H]2C[C@H]3CCC[C@H](N3)[C@H]2F)nn1 (single isomer, unassigned) [41-ENT2]
pEC50 (mHTT protein): 7.30 to 7.80
MDCK-MDR1: % Recov A-B [1]: 66%
MDCK-MDR1: % Recov B-A [1]: 74%
efflux ratio at 120 min, 5 μM (MDR1): 8
Papp A→B at 120 min, 5 μM (MDR1): 49.6 nm/s
Papp B→A at 120 min, 5 μM (MDR1): 409 nm/s

Cn1cnc(-c2ccc(-c3ccc(O[C@H]4C[C@@H]5CCC[C@@H](N5)[C@H]4F)nn3)c(O)c2)cc1=O (single isomer, unassigned) [138-ENT2]
pEC50 (mHTT protein): 6.30 to 7.00
MDCK-MDR1: % Recov A-B [1]: 92%
MDCK-MDR1: % Recov B-A [1]: 91%
efflux ratio at 120 min, 5 μM (MDR1): 32
Papp A→B at 120 min, 5 μM (MDR1): 18.8 nm/s
Papp B→A at 120 min, 5 μM (MDR1): 607 nm/s

Cc1cc(-c2ccc(-c3ccc(O[C@H]4C[C@@H]5CCC[C@@H](N5)[C@H]4F)nn3)c(O)c2)co1 (single isomer, unassigned) [98-ENT2]
pEC50 (mHTT protein): 6.30 to 7.00
MDCK-MDR1: % Recov A-B [1]: 9%
MDCK-MDR1: % Recov B-A [1]: 45%
efflux ratio at 120 min, 5 μM (MDR1): 3
Papp A→B at 120 min, 5 μM (MDR1): 10.7 nm/s
Papp B→A at 120 min, 5 μM (MDR1): 32.3 nm/s

Cc1cncc(-c2ccc(-c3ccc(O[C@H]4C[C@@H]5CCC[C@@H](N5)[C@H]4F)nn3)c(O)c2)n1 (single isomer, unassigned) [102-ENT2]
pEC50 (mHTT protein): 6.30 to 7.00
MDCK-MDR1: % Recov A-B [1]: 86%
MDCK-MDR1: % Recov B-A [1]: 89%
efflux ratio at 120 min, 5 μM (MDR1): 6
Papp A→B at 120 min, 5 μM (MDR1): 79.3 nm/s
Papp B→A at 120 min, 5 μM (MDR1): 484 nm/s

Cc1ncn(-c2ccc(-c3ccc(O[C@H]4C[C@@H]5CCC[C@@H](N5)[C@H]4F)nn3)c(O)c2)n1 (single isomer, unassigned) [70-ENT2]
pEC50 (mHTT protein): 6.30 to 7.00
MDCK-MDR1: % Recov A-B [1]: 94%
MDCK-MDR1: % Recov B-A [1]: 105%
efflux ratio at 120 min, 5 μM (MDR1): 5
Papp A→B at 120 min, 5 μM (MDR1): 74.7 nm/s
Papp B→A at 120 min, 5 μM (MDR1): 401 nm/s

Cc1nocc1-c1ccc(-c2ccc(O[C@H]3C[C@@H]4CCC[C@@H](N4)[C@H]3F)nn2)c(O)c1 (single isomer, unassigned) [72-ENT1]
pEC50 (mHTT protein): 6.30 to 7.00
MDCK-MDR1: % Recov A-B [1]: 74%
MDCK-MDR1: % Recov B-A [1]: 93%
MDCK-MDR1: Efflux [1]: 9
MDCK-MDR1: Papp A-B [1]: 5.74 10^−6, cm/s
MDCK-MDR1: Papp B-A [1]: 51 10^−6, cm/s
